The compound `CNc1cc(NS(=O)(=O)c2ccc(C)cc2)nc(NC)n1` yielded a melting point of 270 to 272 °C.

On to `CC1CC(c2cccc(Cl)c2)=NNC1=O` (centres undefined), for which the melting point was in the range of 150 to 151 °C.

In the case of `CC(C)C[C@@H](OC(=O)c1cc(Cl)ccn1)C(=O)O`, the melting point was in the range of 120 to 122 °C.

`CCOc1ccc2c(c1)C(C)(c1ccccc1O)C(=O)N2S(=O)(=O)c1ccc(C(=O)NC(C)(C)C)cc1` (centres undefined) came in with a melting point of 180 °C.

Compound `CC1NC(=NC2CNCCO2)N(CCO)C1C` (centres undefined) returned a melting point of 108 to 109 °C.

The compound `O=C(Cl)c1c(Cl)c(Cl)c(C(F)(F)F)c(Cl)c1Cl` displayed a melting point of 72 to 76 °C.

For `CC(=O)N(NC(=O)c1ccccc1)[C@@H]1c2cc(C#N)ccc2OC(C)(C)[C@H]1O` (relative stereo), the melting point lay within 212 to 213 °C.

For the compound `Cc1noc(-c2cc3c4ccccc4n(C)c3s2)n1`, the melting point lay in the range of 200 to 201 °C.

Take `Cc1cc(C)cc(Sc2cccc(N)c2C#N)c1`: the melting point was 124 to 125 °C.

In turn, `CC(C)c1cccc(C(C)C)c1NC(=O)Cc1c(-c2ccccc2)c2cc(Cl)ccc2n(C)c1=O` gave a melting point of 237 to 238 °C.

The compound `N#CSC1=Nc2ccccc2Sc2nccn21` came in with a melting point of 111 to 113 °C.

Consider `FC(F)(F)Oc1ccc2[nH]c(S)nc2c1`, for which the melting point fell in the range of 305 to 307 °C.

`C[C@@H](O[Si](C)(C)C(C)(C)C)[C@@H]1C(=O)N[C@@H]1S(=O)(=O)c1ccc([N+](=O)[O-])cc1[N+](=O)[O-]` returned a melting point of 148 to 149 °C.

Turning to `O=Cc1cccc2ncc(-c3ccccc3)cc12`, the melting point was in the range of 122 to 124 °C.

Regarding `Nc1cc(-n2cc(C(=O)O)c(=O)c3cc(F)c(Cl)nc32)c(F)cc1Cl`, the melting point was over 270 °C.

Turning to `CCOC(=O)c1c(C)nc2c(c1N)c1ccccc1n2Cc1ccccc1`, the melting point was in the range of 139 to 140 °C.

The compound `Cc1cccc(C)c1N1CC(=N)N(c2c(C)cccc2C)C1C(=O)c1ccc(Cl)cc1` (centres undefined) displayed a melting point of 155 to 156 °C.

As to `COc1ccc2c(c1O)NC(OC)C1CCCN1C2=O` (centres undefined), the melting point fell in the range of 154 to 156 °C.

On to `Fc1ccc([C@H]2CC[C@H](NCc3ccn4c(CC5CC5)nnc4c3C(F)(F)F)CC2)c(F)c1`, for which the melting point turned out to be 110 °C.

In turn, `O=C(Nc1c[nH]nc1C(=O)Nc1cccc(C(F)(F)F)c1)c1ccccn1` yielded a melting point of 236 to 237 °C.

For `O=[N+]([O-])c1ccc(-c2cccc(-c3cn([C@H]4CN5CCC4CC5)nn3)c2)cn1`, the melting point worked out at 180 °C.

In turn, `Cc1nc(NC(=O)c2cnn3c(C(F)(F)F)cc(-c4ccc(C(F)(F)F)c(OCC(F)(F)F)c4)nc23)sc1S(N)(=O)=O` registered a melting point of 264 °C.

`Cc1oc(-c2ccccc2)nc1CCOc1ccc(C[C@H](NC(=O)C=Cc2ccc(F)cc2F)C(=O)O)cc1Br` came in with a melting point of 221 to 223 °C.

In turn, `CC1CC(=O)c2ccc(F)cc2O1` (centres undefined) returned a melting point of 42 to 47 °C.

The compound `O=C1CCC(=O)N1c1cccc(OCc2nc3ccccc3s2)c1` returned a melting point of 175 to 176 °C.

For `COc1ccc(S(=O)(=O)Nc2ccccc2/C=C/c2ccncc2C)cc1`, the melting point was in the range of 183 to 185 °C.

As to `COc1cc(CCC(=O)C2=C(Cl)CCC2)cc(OS(=O)(=O)c2ccc(C)cc2)c1OC`, the melting point was found to be 73 °C.

`CCCc1c(C(=O)OCC)c2c3c(ccc2n1C)OC1c2ccc(SC)cc2CCN1C3` (centres undefined): the melting point lay in the range of 139 to 143 °C.

For the compound `CCCc1c(OCCCCCCc2cccc(OCCCC(C)(C)C(=O)O)c2CCC(=O)O)ccc2c1OCCC2=O`, the melting point fell in the range of 85 to 87 °C.

Regarding `CC(C)OC(=O)Cn1c(=O)n(C)c(=O)n(-c2cc(N=c3sc(=O)n4n3CCCC4)c(F)cc2Cl)c1=O`, the melting point is 97 to 107 °C.

Consider `CC1(C)c2ccc([N+](=O)[O-])cc2C(NC(=O)Nc2ccccc2)C1O` (centres undefined), for which the melting point was in the range of 194 to 195 °C.

Regarding `O=C(NOC1CCCCO1)c1ccc(-c2ccc3ncnc(Nc4ccc(OCc5cccc(F)c5)c(Cl)c4)c3c2)o1` (centres undefined), the melting point amounted to 221 °C.

Compound `Fc1cccc(COc2nnc(-c3ccc4c(c3)CCO4)o2)c1` displayed a melting point of 91 to 92 °C.

For the compound `C#CCNC(=O)NC1CCC(=O)c2sccc21` (centres undefined), the melting point was 170 to 183 °C.

Take `CCN(CC)CCCNC(=O)Cn1cc(-c2ccccc2)cn1`: the melting point fell in the range of 55 to 57 °C.

As for `C=CCC(O)(CC=C)c1nc(-c2ccncc2)c(-c2ccc(Cl)cc2)n1CC`, the melting point was 159 to 160 °C.

As for `CN(C)C(=O)n1nc(NC=O)c2cc(C(F)(F)F)ccc21`, the melting point was 198 to 200 °C.

The compound `Cc1csc2ncc(C(C)(O)CCc3ccccc3)n12` (centres undefined) yielded a melting point of 131 to 133 °C.

With `CCn1c(=O)c2[nH]c(/C=C/c3ccc(F)c(Cl)c3)nc2n(CC)c1=O`, the melting point was over 270 °C.

For `CC(Oc1ccc(Cl)cc1[N+](=O)[O-])c1ccnc2ncnn12` (centres undefined), the melting point came out at 158 °C.

As to `Cc1noc(C)c1NCC#CI`, the melting point lay within 139 to 140 °C.

Turning to `CC12CCC(I)CC1=CCC1C2CCC2(C)C1CCC21OCCO1` (centres undefined), the melting point was in the range of 140 to 141 °C.

`COc1ccc2[nH]cc(CCCCN3CC=C(c4cccs4)CC3)c2c1`: the melting point was determined as 158 °C.

`CCc1nn(C2CN(C(C)C)C2)c(C(N)=O)c1[N+](=O)[O-]` had a melting point of 153 to 156 °C.

Compound `Cc1ccc(C(O[Si](C)(C)C(C)(C)C)C(=O)N2CCOCC2)cc1` (centres undefined) showed a melting point of 64 to 65 °C.

`N#CCC(=O)c1nn(-c2ccccc2)c2c1COc1c(CN3CCOCC3)cc(F)cc1-2`: the melting point lay within 187 to 189 °C.

Turning to `O=C1Cc2cc(Cl)cc(Oc3ccccc3F)c2N1`, the melting point lay in the range of 204 to 207 °C.

As for `CC(=O)OC1CCC2(C)C(=CCC3C2CCC2(C)C(C(C)CCC(=O)O)CCC32)C1` (centres undefined), the melting point lay in the range of 192 to 193 °C.

`CS(=O)(=O)Nc1cc(CC(=O)O)cc2c1NC(C(F)(F)F)CC2` (centres undefined): the melting point lay within 189 to 191 °C.

Consider `CSc1ccc(-c2nn(CC=Cc3ccc(Cl)cc3)c(=O)cc2-c2ccc(F)cc2)cc1`, for which the melting point worked out at 119 °C.

As for `COc1cc(CN2C(=N)c3cc(-c4ccc(F)cc4F)ccc3S2(=O)=O)ccn1`, the melting point was 173 °C.

The compound `Clc1ccc(I)cc1CBr` displayed a melting point of 94 to 95 °C.

For `Cc1cccc(C)c1N(C(C)C(=O)NN)S(C)(=O)=O` (centres undefined), the melting point lay within 115 to 118 °C.

As for `BrCc1cc2ccc3ccccc3c2s1`, the melting point was 75 to 78 °C.

Compound `O=C(c1cnoc1C1CC1)c1ncc(Cl)cc1Cl` registered a melting point of 74 to 75 °C.

With `COc1cc(S(=O)(=O)c2ccccc2)ccc1N`, the melting point lay within 149 to 150 °C.

`CC(C)CN1C(=O)C2CC(c3ccc([N+](=O)[O-])cc3)(C2)C1=O` displayed a melting point of 136 to 137 °C.

Turning to `CS(=O)(=O)N(CCI)N(S(C)(=O)=O)S(C)(=O)=O`, the melting point was 136 to 138 °C.

In turn, `C=CCOc1ccc(C)c2c1C(C)(C)C(=O)N2Cc1ccccc1` had a melting point of 107 to 108 °C.

In turn, `CCCCCCCCN1C(=O)NC2(CC(C)(CC)N(CCOC(=O)c3ccccc3)C(C)(CC)C2C)C1=O` (centres undefined) displayed a melting point of 123 to 124 °C.

In turn, `O=C(O)COC(c1cccc(-c2nnc(Nc3ccc(Cl)c(Cl)c3)s2)c1)c1cccc(C(F)(F)F)c1` (centres undefined) had a melting point of 89 to 91 °C.

`Cc1nc2nccc(-c3cccs3)n2n1` had a melting point of 184 to 185 °C.

Compound `COc1cc(OCC2CCCO2)ccc1/C=C/C(=O)CC(=O)/C=C/c1ccc2cc[nH]c2c1` (centres undefined) came in with a melting point of 159 to 161 °C.

Take `COc1ccc([N+](=O)[O-])cc1CO`: the melting point fell in the range of 121 to 122 °C.

`COc1ccc(C=O)c(OC)c1Cl` gave a melting point of 107 to 108 °C.

Turning to `Brc1csc(N2CCCCC2)n1`, the melting point is 66 °C.

Turning to `CN(CCO)c1cc2c(=O)n(NS(C)(=O)=O)c(=O)[nH]c2cc1C(F)(F)F`, the melting point lay in the range of 220 to 224 °C.

Consider `Cc1cccc(C(=O)C2CC2)c1N`, for which the melting point amounted to 64 °C.

`COc1cc(Cl)c2ncccc2c1` had a melting point of 74 to 75 °C.

For `O=C(OCc1ccccc1)N1CCC(c2[nH]c(=O)c3ccccc3c2-c2ccccc2)CC1`, the melting point was in the range of 276 to 278 °C.

For `CCOC(=O)C(=NO)c1ccc(Br)cc1`, the melting point lay in the range of 163 to 164 °C.

The compound `Cc1ccc(Cl)c(Nc2ccccc2C(N)=S)c1Cl` came in with a melting point of 134 to 136 °C.

Compound `CC(C)Oc1ccc2nc(CO)n(C)c2n1` gave a melting point of 125 to 127 °C.

`Nc1nc(N)c2nc(N)n(COC(CO)CO)c2n1` yielded a melting point of 206 to 208 °C.

Regarding `Cc1ccccc1-n1c(C=Cc2ccccn2)nc2ccsc2c1=O`, the melting point amounted to 203 °C.

In turn, `CCCCCCCCCCCCCCc1ccc(OCC(O)CO)cc1` (centres undefined) came in with a melting point of 81.5 to 83.5 °C.

The compound `O=C(O)CCc1nn(-c2ccc(F)cc2)cc1-c1ccc(Cl)cc1` yielded a melting point of 131 °C.

In turn, `Cc1cc(-c2ccccc2Cl)nn1C(C)(C)C(=O)N(C)C` came in with a melting point of 104 to 106 °C.

In turn, `COc1ccc(-c2ccc(C=O)c3ccoc23)cc1` came in with a melting point of 143 to 144 °C.

For `N=C(NCCCc1c[nH]cn1)NC1CCN(c2ccc(C3=NNC(=O)CC3CO)cc2[N+](=O)[O-])CC1` (centres undefined), the melting point lay within 135 to 137 °C.

Take `N#Cc1cnc2c(c1Cl)C=C1N=CN=C1C2`: the melting point was over 300 °C.

The compound `COc1cccc(N2CCN(CC(O)COC(c3ccccc3)c3cccc4ccccc34)CC2)c1` (centres undefined) registered a melting point of 84 °C.

Compound `C[Si](C)(C)OC(Cn1ccnc1)(Cn1cncn1)c1ccc(Cl)cc1Cl` (centres undefined) registered a melting point of 82 to 85 °C.

`O=C(O)c1cc(F)cc(-c2cccc3cc(Cc4ccc(F)c(Cl)c4)sc23)c1`: the melting point lay in the range of 135 to 137 °C.

Take `Cc1c(SCCCSCCc2ccccc2)ccnc1CSc1ccncc1`: the melting point was in the range of 48 to 50 °C.

`O=C(O)C(=O)c1ccc(OCCCCCOc2ccccc2)cc1` returned a melting point of 69 to 70 °C.

`CC(=O)Nc1cc(C(C)(C)C)c(SC2=C(O)CC(CCc3ccc(O)cc3)(C3CCCCC3)OC2=O)cc1C` (centres undefined): the melting point was over 154 °C.

The compound `CCOc1c(OC)cc(C(=O)OC)c(-c2c(C(=O)OC)cc(OC)c3c2OCO3)c1OCC` showed a melting point of 107 to 108 °C.

`CCCCCN(CC(=O)OC(C)(C)C)C(=O)C(CCC(=O)OC)CS(=O)(=O)c1ccc2ccccc2c1` (centres undefined) displayed a melting point of 85 to 87 °C.

The term melting point denotes the temperature of the solid-liquid transition.

Source of the values: a melting point compilation (Tetko et al.; mined from patent text by program, amines drawn as free bases though some values may be those of a salt).
